The results in this text go back to publication PMC5762204 (Journal of Pharmaceutical Analysis, 2014).

In general, Tmax refers to the time at which the peak concentration occurs. The half-life is the time in which the quantity being followed falls by half. Read a high half-life as slow decline.

The data set in a line: Pharmacokinetic study in rats after oral administration. The data set is classed as in vivo. Particulars: male, Wistar, rat, plasma.

Consider `CCC(C)(C)C(=O)O[C@H]1C[C@@H](C)C=C2C=C[C@H](C)[C@H](CC[C@@H]3C[C@@H](O)CC(=O)O3)[C@H]21` [Simvastatin, simvastatin], for which the time to peak (Tmax) was 0.75 h and the half-life was 5.6 ± 0.1 h.
Consider `N[C@@H](CC(=O)N1CCn2c(nnc2C(F)(F)F)C1)Cc1cc(F)c(F)cc1F` [Sitagliptin, sitagliptin], for which the time to peak (Tmax) is 1 h and the half-life was 6.1 ± 0.2 h.
